Results taken from patent publication US12551499B2 (Atea Pharmaceuticals, Inc., priority 2020, dated 2026).
Where “and” joins values, the source holds several entries; their conditions need not be identical. Equal entries are not always repeated. Where two headings read alike, the source gives them in different places.

Experiments:
[1] = test system: human bronchial epithelial cells; conditions: 10 μM
in vivo = conditions: male, cynomolgus monkey, Mean Intracellular Compound 1-6 Concentration
[2] = test system: human nasal epithelial cells; conditions: 10 μM
[3] = male, cynomolgus monkey, in vivo, 12 h
[4] = Plasma PK in non-human primates after oral Compound 2A; conditions: monkey plasma, oral Compound 2A 60 mg/kg then 30 mg/kg every 12 h, steady state
Huh7 cells = test: Visual cytotoxicity in uninfected Huh7 cells; format: cell-based, human
Description: (§1) Huh7 cells were seeded in 96-well plates at a concentration that yielded 80-100% confluent monolayers in each well after overnight incubation. Compound 1A was dissolved in DMSO to 10 mg/mL and 8 half-log serial dilutions in test medium (modified Eagle's medium containing 5% fetal bovine serum and […] gentamicin) were prepared with the highest concentration of 50 μg/mL. 100 μL of each concentration were added to 5 test wells on the 96-well plate and 3 wells were infected with test virus in test medium (≤100 CCID50 per well). An equivalent amount of test medium was added to the remaining test wells to assess toxicity to uninfected cells. Six wells were infected to serve as untreated virus controls. Media only was added to 6 wells to serve as cell controls. Plates were incubated at 37° C. in a humidified 5% CO2 atmosphere until cytopathic effect (CPE) was observed microscopically.

MERS-CoV (EMC) = format: cell-based; conditions: MERS-CoV versus other CoVs
[5] = test system: human coronavirus alpha-229E; test: Visual CPE assay, coronavirus alpha-229E in Huh7 cells; format: cell-based; conditions: Huh-7
Description: as §1

RD cells = conditions: human
[6] = test system: human bronchial epithelial cells; test: Triphosphate formation in human bronchial epithelial cells; conditions: human nasal and bronchial epithelial cells, up to 100 μM
[7] = test system: human airway epithelial (HAE) cells
SARS-CoV-2 (WA1) = test: Virus yield reduction assay, SARS-CoV-2 in dNHBE / HAE cells; format: cell-based
Description: The antiviral activity of Compound 1A was next evaluated against SARS-CoV-2 (WA1) using differentiated normal human bronchial epithelial (dNHBE; HAE (human airway epithelial) cells made to order by MatTek Corporation (Ashland, MA).
Cell Culture: dNHBE cells were grown on 6 mm mesh disks and arrived in kits with either 12- or 24-well transwell inserts. During transportation the tissues were stabilized on a sheet of agarose, which was removed upon receipt. One insert was estimated to consist of approximately 1.2×10^6 cells. Kits of cell inserts (EpiAirway™ AIR-100, AIR-112) originated from a single donor, #9831, a healthy, non-smoking person. The cells have unique properties in forming layers, the apical side of which is exposed only to air and that creates a mucin layer. Upon arrival, the cell transwell inserts were immediately transferred to individual wells of a 6-well plate according to manufacturer's instructions, and 1 mL of MatTek's proprietary culture medium (AIR-100-MM) was added to the basolateral side, whereas the apical side was exposed to a humidified 5% CO2 environment. Cells were cultured at 37° C. for one day before the start of the experiment. After the 24 hour equilibration period, the mucin layer, secreted from the apical side of the cells, was removed by washing with 400 μL pre-warmed 30 mM HEPES buffered saline solution 3×. Culture medium was replenished following the wash steps.
Viruses: Virus was diluted in AIR-100-MM medium before infection, yielding a multiplicity of infection (MOI) of approximately 0.0015 CCID50 per cell.
The cells were maintained at the air-liquid interface.
Determination of virus titers from each treated cell culture: Vero 76 cells were seeded in 96-well plates and grown overnight (37° C.) to confluence. Samples containing virus were diluted in 10-fold increments in infection medium and 200 μL of each dilution transferred into respective wells of a 96-well microtiter plate. Four microwells were used for each dilution to determine 50% viral endpoints. After 5 days of incubation, each well was scored positive for virus if any cytopathic effect (CPE) was observed as compared with the uninfected control and counts were confirmed for endpoint on days 6 and 7. […] The day 5 values were reported. Untreated, uninfected cells were used as the cell controls.
The antiviral activities of test compounds were evaluated against SARS-CoV-2 (USA-WA1/2020) using made to order human airway epithelial (HAE) cells.
Cell Culture: HAE cells were grown on 6 mm mesh disks and arrived in kits with either 12- or 24-well transwell inserts. During transportation the tissues were stabilized on a sheet of agarose, which was removed upon receipt. One insert was estimated to consist of approximately 1.2×10^6 cells. Kits of cell inserts (EpiAirway™ AIR-100 or AIR-112) originated from a single donor, #9831, a healthy, non-smoking person. The cells form polarized monolayers, the apical side of which is exposed to air and creates a mucin layer. Upon arrival, the cell transwell inserts were immediately transferred to individual wells of a 6-well plate according to the manufacturer's instructions, and 1 mL of MatTek's proprietary culture medium (AIR-100-MM) was added to the basolateral side, whereas the apical side was exposed to a humidified 5% CO2 environment. Cells were cultured at 37° C. in a humidified atmosphere containing 5% CO2 for one day before the start of the experiment. After the 24-h equilibration period, the mucin layer, secreted from the apical side of the cells, was removed by washing with 400 μL pre-warmed 30 mM HEPES buffered saline solution 3×. Culture medium was replenished following the wash steps.
Viruses: Virus was diluted in AIR-100-MM medium before infection to yield a MOI when added to cultures of approximately 0.0015 CCID50 per cell.
Select compounds of the present invention were tested in a SARS-CoV-2 assay. […]

[8] = test system: human airway epithelial (HAE) cells; test: Cytotoxicity in dNHBE / HAE cells by visual inspection; conditions: visual toxicity, Table 11

C[C@@]1(F)[C@H](O)[C@@H](COP(=O)(O)OP(=O)(O)OP(=O)(O)O)O[C@H]1n1cnc2c(=O)[nH]c(N)nc21 [Compound 1-6]
Mean Intracellular Compound 1-6 Concentration ([1]; 0 h): 698 µM | Mean Intracellular Compound 1-6 Concentration ([1]; 15 h): 560 µM | Mean Intracellular Compound 1-6 Concentration ([1]; 24 h): 462 µM | Mean Intracellular Compound 1-6 Concentration ([1]; 48 h): 290 µM | Mean Intracellular Compound 1-6 Concentration ([1]; 72 h): 217 µM | concentration at 24 h (in vivo): 32 nM | Mean Intracellular Compound 1-6 Concentration ([2]; 0 h): 236 µM | Mean Intracellular Compound 1-6 Concentration ([2]; 15 h): 204 µM | Mean Intracellular Compound 1-6 Concentration ([2]; 24 h): 170 µM | Mean Intracellular Compound 1-6 Concentration ([2]; 48 h): 107 µM | Mean Intracellular Compound 1-6 Concentration ([2]; 72 h): 73.8 µM | Mean Intracellular Compound 1-6 Concentration [3]: 0.089 µM

CNc1nc(N)nc2c1ncn2[C@@H]1O[C@H](CO[P@@](=O)(N[C@@H](C)C(=O)OC(C)C)Oc2ccccc2)[C@@H](O)[C@@]1(C)F [Compound 1A]
AUC0-12 h [4]: 0.44 µM·h | Cmax [4]: 640 nM | T1/2 [4]: 44.4 min | Tmax [4]: 30 to 60 min | CC50 (Huh7 cells; Alpha-229E row): > 50000 nM | CC50 (Huh7 cells; Beta-OC43 row): > 50000 nM | difference of activity between MERS-CoV and other CoVs (MERS-CoV (EMC)): 30 fold | EC50 [5]: 1000 nM | CC50 (RD cells): > 86000 nM | toxicity [6]: no toxicity was observed | VYR Assay CC50 [7]: no visual tox no visual tox no visual tox | replicate EC90 determinations (SARS-CoV-2 (WA1); SARS-CoV-2 (WA1) in dNHBE, single replicates): 0.41 µg/mL | EC90 (SARS-CoV-2 (WA1); SARS-CoV-2 in HAE (dNHBE) cells, Table 11, read-out: VYR Assay EC90): 460 nM and 520 nM | EC90 (SARS-CoV-2 (WA1); SARS-CoV-2 in HAE, footnotes f, g, h of Table 5, read-out: EC90, single replicates): 700 nM and 420 nM | EC90 (SARS-CoV-2 (WA1); Severe acute respiratory syndrome coronavirus 2, HAE, SARS-CoV-2 in HAE (dNHBE) cells, Table 11, read-out: VYR Assay EC90): 630 nM | cytotoxicity (Huh-7 cells): No cytotoxicity was detected | CC50 (Huh-7 cells; human): > 50000 nM

CCC(CC)COC(=O)[C@H](C)N[P@](=O)(OC[C@H]1O[C@@](C#N)(c2ccc3c(N)ncnn23)[C@H](O)[C@@H]1O)Oc1ccccc1 [Remdesivir]
VYR Assay CC50 [8]: no visual tox no visual tox no visual tox no visual tox
